Source: patent US20260217672A1, “BENZAMIDE COMPOUNDS FOR TREATMENT OF BACTERIAL INFECTIONS” (Hoffmann-La Roche Inc., priority 2022, published 2026)
Values after ≈ are worked out from the molar mass of the structure shown.

Legend:
[1] = test system: Escherichia coli ATCC 25922; assay: Minimal Inhibitory Concentration (MIC) broth dilution assay; assay type: cell-based; conditions: ATCC25922, 20 h, read-out: MIC Escherichia coli ATCC 25922
Procedure: (§1) The antibacterial activity of the compounds of the present invention was evaluated against the commonly used quality control strain Escherichia coli ATCC 25922 and the rifampin-resistant mutant strain Klebsiella pneumonia ATCC 43816. Both were originally derived from human clinical samples and are available from ATCC (American Type Culture Collection). The in vitro potency of compounds to inhibit Escherichia coli (ATCC 25922) and Klebsiella pneumonia (ATCC 43816) growth was assessed by the MIC (Minimal Inhibitory Concentration) broth dilution method. Specifically compound dilutions were prepared from 10 mM DMSO stock solutions as follows: i) serial 2-fold dilution in 20 μL DMSO were prepared in a master plate (Greiner, Cat No: 651201), ii) 180 μL sterile distilled water was added to each aliquot and iii) 10 μL diluted compounds were transferred into a new assay plate (Costar, 3599).
(§2) Vials of each test microorganisms were maintained frozen in the vapor phase of a liquid nitrogen freezer. Single-use frozen vials of the two strains Escherichia coli ATCC 25922 (KWIKSTIK, 0335K) and Klebsiella pneumonia ATCC 43816, with predetermined CFU/mL, were taken out from the freezer, thawed at room temperature, and diluted in Cation-Adjusted Mueller Hinton Broth (CAMHB) to achieve a final inoculum of 5×10^5 CFU/mL. 90 μL bacteria containing broth was dispensed to the assay plate containing the pre-dispensed compound dilutions and mixed by pipetting 5 times.
(§3) Then the assay plates were incubated for 20 hours at 35° C. in ambient air. Following incubation, the MIC ([…]), the lowest concentration of drug that inhibits visible growth of the microorganism was read with the help of a magnification mirror and recorded.

[2] = test system: Klebsiella pneumonia ATCC 43816; assay: as above; assay type: cell-based; conditions: Klebsiella pneumoniae, ATCC43816, 20 h, read-out: MIC Klebsiella pneumoniae ATCC43816
Procedure: as §1, §2, §3

SMILES | MIC [1] | MIC [2]
NCCOc1cccc(C(=O)Nc2ccc(S(=O)(=O)N3CCN(c4cc(C(F)(F)F)cc(Cl)n4)CC3)cc2)c1 [Example 048, 3-(2-Aminoethoxy)-N-[4-[4-[6-chloro-4-(trifluoromethyl)-2-pyridyl]piperazin-1-yl]sulfonylphenyl]benzamide] | 0.48 µg/mL (≈ 0.822 µM) | 0.97 µg/mL (≈ 1.66 µM)
O=C(Nc1ccc(S(=O)(=O)N2CCN(c3cc(C(F)(F)F)cc(Cl)n3)CC2)cc1)c1cccc(OCC2CNC2)c1 [Example 050, 3-(Azetidin-3-ylmethoxy)-N-[4-[4-[6-chloro-4-(trifluoromethyl)-2-pyridyl]piperazin-1-yl]sulfonylphenyl]benzamide] | 1 µg/mL (≈ 1.64 µM) | 1 µg/mL (≈ 1.64 µM)
N[C@@H]1CCN(c2cccc(C(=O)Nc3ccc(S(=O)(=O)N4CCN(c5cc(C(F)(F)F)cc(Cl)n5)CC4)cc3)c2)C1 [Example 051, N-[4-[4-[6-chloro-4-(trifluoromethyl)-2-pyridyl]piperazin-1-yl]sulfonylphenyl]-3-[(3R)-3-aminopyrrolidin-1-yl]benzamide] | 0.56 µg/mL (≈ 0.919 µM) | 1.1 µg/mL (≈ 1.81 µM)
NCCc1cccc(C(=O)Nc2ccc(S(=O)(=O)N3CCN(c4cc(C(F)(F)F)cc(Cl)n4)CC3)cc2)c1 [Example 053, 3-(2-Aminoethyl)-N-[4-[4-[6-chloro-4-(trifluoromethyl)-2-pyridyl]piperazin-1-yl]sulfonylphenyl]benzamide] | 0.44 µg/mL (≈ 0.775 µM) | 0.89 µg/mL (≈ 1.57 µM)
O=C(Nc1ccc(S(=O)(=O)N2CCN(c3cc(C(F)(F)F)cc(Cl)n3)CC2)cc1)c1cccc(N2CCNCC2)c1 [Example 054, N-[4-[4-[6-chloro-4-(trifluoromethyl)-2-pyridyl]piperazin-1-yl]sulfonylphenyl]-3-piperazin-1-yl-benzamide] | 0.48 µg/mL (≈ 0.788 µM) | 0.95 µg/mL (≈ 1.56 µM)
NC1Cc2ccc(C(=O)Nc3ccc(S(=O)(=O)N4CCN(c5cc(C(F)(F)F)cc(Cl)n5)CC4)cc3)cc2C1 (stereo not shown) [Example 055, 2-Amino-N-[4-[4-[6-chloro-4-(trifluoromethyl)-2-pyridyl]piperazin-1-yl]sulfonylphenyl]indane-5-carboxamide] | 0.45 µg/mL (≈ 0.776 µM) | 0.91 µg/mL (≈ 1.57 µM)
NCc1ccc(O)c(C(=O)Nc2ccc(S(=O)(=O)N3CCN(c4cc(C(F)(F)F)cc(Cl)n4)CC3)cc2)c1 [Example 056, 5-(Aminomethyl)-N-[4-[4-[6-chloro-4-(trifluoromethyl)-2-pyridyl]piperazin-1-yl]sulfonylphenyl]-2-hydroxy-benzamide] | 3.8 µg/mL (≈ 6.67 µM) | 3.8 µg/mL (≈ 6.67 µM)
NCCC(N)C(=O)Nc1cccc(C(=O)Nc2ccc(S(=O)(=O)N3CCN(c4cc(C(F)(F)F)cc(Cl)n4)CC3)cc2)c1 (stereo not shown) [Example 057, N-[4-[4-[6-chloro-4-(trifluoromethyl)-2-pyridyl]piperazin-1-yl]sulfonylphenyl]-3-(2,4-diaminobutanoylamino)benzamide] | 1 µg/mL (≈ 1.56 µM) | 2 µg/mL (≈ 3.12 µM)
NCCCNCc1ccnc(C(=O)Nc2ccc(S(=O)(=O)N3CCN(c4cc(C(F)(F)F)cc(Cl)n4)CC3)cc2)c1 [Example 058, 4-[(3-Aminopropylamino)methyl]-N-[4-[4-[6-chloro-4-(trifluoromethyl)-2-pyridyl]piperazin-1-yl]sulfonylphenyl]pyridine-2-carboxamide] | 3.8 µg/mL (≈ 6.21 µM) | 3.8 µg/mL (≈ 6.21 µM)
NCCCNCc1cccc(C(=O)Nc2ccc(S(=O)(=O)N3CCN(c4cc(C(F)(F)F)cc(Cl)n4)CC3)cc2)n1 [Example 059, 6-[(3-Aminopropylamino)methyl]-N-[4-[4-[6-chloro-4-(trifluoromethyl)-2-pyridyl]piperazin-1-yl]sulfonylphenyl]pyridine-2-carboxamide] | 1.9 µg/mL (≈ 3.1 µM) | 3.8 µg/mL (≈ 6.21 µM)
NCCCNCc1cncc(C(=O)Nc2ccc(S(=O)(=O)N3CCN(c4cc(C(F)(F)F)cc(Cl)n4)CC3)cc2)c1 [Example 060, 5-[(3-Aminopropylamino)methyl]-N-[4-[4-[6-chloro-4-(trifluoromethyl)-2-pyridyl]piperazin-1-yl]sulfonylphenyl]pyridine-3-carboxamide] | 0.48 µg/mL (≈ 0.784 µM) | 1.9 µg/mL (≈ 3.1 µM)
NCCCNC1Cc2ccc(C(=O)Nc3ccc(S(=O)(=O)N4CCN(c5cc(C(F)(F)F)cc(Cl)n5)CC4)cc3)cc2C1 (stereo not shown) [Example 061, 2-(3-Aminopropylamino)-N-[4-[4-[6-chloro-4-(trifluoromethyl)-2-pyridyl]piperazin-1-yl]sulfonylphenyl]indane-5-carboxamide] | 0.53 µg/mL (≈ 0.832 µM) | 1.1 µg/mL (≈ 1.73 µM)
NCCCNC1CCc2ccc(C(=O)Nc3ccc(S(=O)(=O)N4CCN(c5cc(C(F)(F)F)cc(Cl)n5)CC4)cc3)cc21 (stereo not shown) [Example 062, 3-(3-Aminopropylamino)-N-[4-[4-[6-chloro-4-(trifluoromethyl)-2-pyridyl]piperazin-1-yl]sulfonylphenyl]indane-5-carboxamide] | 2.1 µg/mL (≈ 3.3 µM) | 4.2 µg/mL (≈ 6.59 µM)
COc1ccc(CN2CCC3CN(C)CC32)cc1C(=O)Nc1ccc(S(=O)(=O)N2CCN(c3cc(C(F)(F)F)cc(Cl)n3)CC2)cc1 (stereo not shown) [Example 063, N-[4-[4-[6-chloro-4-(trifluoromethyl)-2-pyridyl]piperazin-1-yl]sulfonylphenyl]-2-methoxy-5-[(5-methyl-2,3,3a,4,6,6a-hexahydropyrrolo[2,3-c]pyrrol-1-yl)methyl]benzamide] | 4.3 µg/mL (≈ 6.2 µM) | 4.3 µg/mL (≈ 6.2 µM)
NCCCNC1CCc2cc(C(=O)Nc3ccc(S(=O)(=O)N4CCN(c5cc(C(F)(F)F)cc(Cl)n5)CC4)cc3)ccc21 (stereo not shown) [Example 064, 1-(3-Aminopropylamino)-N-[4-[4-[6-chloro-4-(trifluoromethyl)-2-pyridyl]piperazin-1-yl]sulfonylphenyl]indane-5-carboxamide] | 2.1 µg/mL (≈ 3.3 µM) | 4.2 µg/mL (≈ 6.59 µM)
NCCCOc1ccc(C(=O)Nc2ccc(S(=O)(=O)N3CCN(c4cc(C(F)(F)F)cc(Cl)n4)CC3)cc2)cc1OCCCN [Example 065, 3,4-Bis(3-Aminopropoxy)-N-[4-[4-[6-chloro-4-(trifluoromethyl)-2-pyridyl]piperazin-1-yl]sulfonylphenyl]benzamide] | 0.26 µg/mL (≈ 0.387 µM) | 0.52 µg/mL (≈ 0.775 µM)
NCCCN1CCCC1c1cccc(C(=O)Nc2ccc(S(=O)(=O)N3CCN(c4cc(C(F)(F)F)cc(Cl)n4)CC3)cc2)c1 (stereo not shown) [Example 066, 3-[1-(3-Aminopropyl)pyrrolidin-2-yl]-N-[4-[4-[6-chloro-4-(trifluoromethyl)-2-pyridyl]piperazin-1-yl]sulfonylphenyl]benzamide] | 0.51 µg/mL (≈ 0.783 µM) | 1 µg/mL (≈ 1.54 µM)
NCCCN1CCC(c2cccc(C(=O)Nc3ccc(S(=O)(=O)N4CCN(c5cc(C(F)(F)F)cc(Cl)n5)CC4)cc3)c2)C1 (stereo not shown) [Example 067, 3-[1-(3-Aminopropyl)pyrrolidin-3-yl]-N-[4-[4-[6-chloro-4-(trifluoromethyl)-2-pyridyl]piperazin-1-yl]sulfonylphenyl]benzamide] | 0.51 µg/mL (≈ 0.783 µM) | 1 µg/mL (≈ 1.54 µM)
NC1CCN(CCc2ccc(C(=O)Nc3ccc(S(=O)(=O)N4CCN(c5cc(C(F)(F)F)cc(Cl)n5)CC4)cc3)cc2)C1 (stereo not shown) [Example 069, 4-[2-(3-Aminopyrrolidin-1-yl)ethyl]-N-[4-[4-[6-chloro-4-(trifluoromethyl)-2-pyridyl]piperazin-1-yl]sulfonylphenyl]benzamide] | 1.2 µg/mL (≈ 1.88 µM) | 2.3 µg/mL (≈ 3.61 µM)
NC1CCC12CN(CCc1ccc(C(=O)Nc3ccc(S(=O)(=O)N4CCN(c5cc(C(F)(F)F)cc(Cl)n5)CC4)cc3)cc1)C2 (stereo not shown) [Example 070, 4-[2-(7-Amino-2-azaspiro[3.3]heptan-2-yl)ethyl]-N-[4-[4-[6-chloro-4-(trifluoromethyl)-2-pyridyl]piperazin-1-yl]sulfonylphenyl]benzamide] | 1.2 µg/mL (≈ 1.81 µM) | 2.4 µg/mL (≈ 3.62 µM)
CN1CC2CCN(CCc3ccc(C(=O)Nc4ccc(S(=O)(=O)N5CCN(c6cc(C(F)(F)F)cc(Cl)n6)CC5)cc4)cc3)C2C1 (stereo not shown) [Example 071, N-[4-[4-[6-chloro-4-(trifluoromethyl)-2-pyridyl]piperazin-1-yl]sulfonylphenyl]-4-[2-(5-methyl-2,3,3a,4,6,6a-hexahydropyrrolo[2,3-c]pyrrol-1-yl)ethyl]benzamide] | 4.2 µg/mL (≈ 6.2 µM) | 4.2 µg/mL (≈ 6.2 µM)
O=C(Nc1ccc(S(=O)(=O)N2CCN(c3cc(C(F)(F)F)cc(Cl)n3)CC2)cc1)c1ccc(CCNCCCN2CCOCC2)cc1 [Example 073, N-[4-[4-[6-chloro-4-(trifluoromethyl)-2-pyridyl]piperazin-1-yl]sulfonylphenyl]-4-[2-(3-morpholinopropylamino)ethyl]benzamide] | 1.4 µg/mL (≈ 2.01 µM) | 2.9 µg/mL (≈ 4.17 µM)
NC1CC12CCN(CCc1ccc(C(=O)Nc3ccc(S(=O)(=O)N4CCN(c5cc(C(F)(F)F)cc(Cl)n5)CC4)cc3)cc1)C2 (stereo not shown) [Example 074, 4-[2-(2-Amino-5-azaspiro[2.4]heptan-5-yl)ethyl]-N-[4-[4-[6-chloro-4-(trifluoromethyl)-2-pyridyl]piperazin-1-yl]sulfonylphenyl]benzamide] | 2.8 µg/mL (≈ 4.22 µM) | 2.8 µg/mL (≈ 4.22 µM)
